# Assay results: the supplement of paper PMC6580486
# Experiments:
# [1] = test system: PCB490-4 (human epithelioid sarcoma primary culture)
# Procedure: (§1)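 Roche open-access kinase inhibitor screen (223 compounds) on human epithelioid sarcoma primary cultures from three spatially distinct regions of tumor PCB490. 384-well plates, 72 h, CellTiter-Glo viability; IC50 by Hill curve fit. 100000 nM = no IC50 reached. Compound ids carry a plate-well prefix, which is stripped.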
# [2] = test system: PCB490-3 (human epithelioid sarcoma primary culture)
# Procedure: as §1
# [3] = test system: PCB490-5 (human epithelioid sarcoma primary culture)
# Procedure: as §1
SMILES,IC50 cell viability [1] [µM],IC50 cell viability [2] [µM],IC50 cell viability [3] [µM]
Cn1cc(C2=C(c3cn(CCCN=C(N)N)c4ccccc34)C(=O)NC2=O)c2ccccc21,> 100,> 100,> 100
Cn1cc(C2=C(c3cn(CCCO)c4ccccc34)C(=O)NC2=O)c2ccccc21,> 100,> 100,> 100
CN1CCN(c2ccc(Nc3nc(N)c(C(=O)c4ccc5c(c4)OCCO5)s3)cc2)CC1,> 100,> 100,> 100
Cc1ccccc1-n1ncc(C(=O)c2ccccc2)c1N,> 100,> 100,> 100
Cn1c(=O)c(Oc2cccc(F)c2)cc2cnc(NC3CCOCC3)nc21,> 100,> 100,> 100
Cn1c(=O)c(Oc2ccc(F)cc2F)cc2cnc(NC(CO)CO)nc21,15,> 100,8.58
Cn1c(=O)c(Cc2ccccc2F)cc2cnc(NC3CCOCC3)nc21,> 100,> 100,> 100
Nc1c(C(=O)c2cccc(-c3ccncc3)c2)cnn1-c1ccc(F)cc1,> 100,> 100,> 100
COc1cccc(C(=O)c2sc(Nc3ccc(N4CCN(C(C)C)CC4)cc3)nc2N)c1,> 100,> 100,> 100
O=[N+]([O-])c1ccc2c(c1)C(c1ccccc1Cl)=Nc1cn[nH]c1N2,> 100,> 100,> 100
CN1CCN(CCc2cccc(C(=O)c3cnn(-c4ccc(F)cc4)c3N)c2)CC1,> 100,> 100,> 100
CC(=O)Nc1ccc2c(c1)C(c1ccccc1Cl)=Nc1c(n[nH]c1C)N2,1.72,4.63,1.55
COc1ccc2c(C3=C(c4cn(C)c5ccccc45)C(=O)NC3=O)cn(C)c2c1,> 100,> 100,> 100
CC(CO)Nc1cc(-c2[nH]c3cccnc3c2-c2ccc(F)cc2)ccn1 (stereo not given),> 100,> 100,> 100
COc1ccc(CCN=C2NC(=O)/C(=C/c3ccc4ncccc4c3)S2)cc1,> 100,> 100,> 100
Cn1cc(C2=C(c3c4n(c5ccccc35)CCNC4)C(=O)NC2=O)c2ccccc21,> 100,> 100,> 100
N#Cc1c(C(=O)c2ccccc2)cnn1-c1ccccc1,> 100,> 100,> 100
COc1cc(F)c(F)cc1C(=O)c1cnc(NC2CCN(S(C)(=O)=O)CC2)nc1N,> 100,> 100,> 100
COc1cccc(C2=C(c3cn(C)c4c(C)cccc34)C(=O)NC2=O)c1,> 100,> 100,> 100
CNc1ncc2cc(Oc3ccc(F)cc3F)c(=O)n(C)c2n1,> 100,> 100,> 100

SMILES,IC50 cell viability [1] [µM],IC50 cell viability [2] [µM],IC50 cell viability [3] [µM]
COc1ccc(OC)c(C2=C(c3cn(C)c4ccccc34)C(=O)NC2=O)c1,> 100,> 100,> 100
Fc1ccc(-c2c(-c3ccncc3)n(CCN3CCOCC3)c3cccnc23)cc1,> 100,> 100,> 100
Cn1cc(C2=C(c3ccc(N)cc3)C(=O)NC2=O)c2ccccc21,> 100,> 100,> 100
Cc1[nH]n(-c2ccccc2)c(=O)c1C(=O)c1ccccc1,> 100,> 100,> 100
Nc1c(C(=O)c2cccc(C#CCO)c2)cnn1-c1ccc(F)cc1,> 100,> 100,> 100
Cn1cc(C2=C(c3cn(-c4ccccc4)c4ccccc34)C(=O)NC2=O)c2ccccc21,> 100,> 100,> 100
Nc1c(C(=O)c2cccc(CCS(N)(=O)=O)c2)cnn1-c1ccc(F)cc1,> 100,> 100,> 100
Cn1c(=O)c(Oc2ccc(F)cc2F)cc2cnc(NCC(C)(C)O)nc21,> 100,> 100,> 100
O=C1NC(=NCc2c(Cl)cccc2Cl)S/C1=C\c1ccc2ncccc2c1,> 100,> 100,> 100
Cn1cc(C2=C(N3CCOCC3)C(=O)NC2=O)c2ccccc21,> 100,> 100,> 100
O=C1NC(=N[C@H](CO)Cc2ccccc2)S/C1=C\c1ccc2ncccc2c1,> 100,> 100,> 100
Cn1cc(C2=C(c3cccc4ccccc34)C(=O)NC2=O)c2ccccc21,> 100,> 100,> 100
Cn1cc(C2=C(c3cn(C)c4ncccc34)C(=O)NC2=O)c2ccccc21,> 100,> 100,> 100
Cn1cc(C2=C(c3cccc(OCC(O)CO)c3)C(=O)NC2=O)c2ccccc21 (stereo not given),> 100,> 100,> 100
CN1CCN(CC#Cc2cccc(C(=O)c3cnn(-c4ccc(F)cc4)c3N)c2)CC1,> 100,> 100,> 100
Cn1cc(C2=C(c3ccccc3C(F)(F)F)C(=O)NC2=O)c2ccccc21,> 100,> 100,> 100
CC(=O)N[C@@H](Cc1ccc(OP(=O)(O)O)cc1)C(=O)N[C@H]1CCC(=O)N2CCC[C@@H](C(=O)NCc3cccc4ccccc34)N2C1=O,> 100,> 100,> 100
CC(=O)N[C@@H](Cc1ccc(OP(=O)(O)O)cc1)C(=O)N[C@H]1CCC(=O)N2CCC[C@@H](C(=O)NCc3ccccc3)N2C1=O,> 100,> 100,> 100
O=C1NC(=O)/C(=C/c2ccc3ncccc3c2)S1,> 100,> 100,> 100
Cn1cc(C2=C(c3cn(CCCN/C(N)=N/[N+](=O)[O-])c4ccccc34)C(=O)NC2=O)c2ccccc21,> 100,> 100,> 100

SMILES,IC50 cell viability [1] [µM],IC50 cell viability [2] [µM],IC50 cell viability [3] [µM]
Cn1c(=O)c(Oc2ccc(F)cc2F)cc2cnc(NC(C)(C)CO)nc21,> 100,> 100,> 100
COC[C@H](N=C1NC(=O)/C(=C/c2ccc3ncccc3c2)S1)c1ccccc1,> 100,> 100,> 100
Cn1cc(C2=C(c3cn(C)c4ccccc34)C(=O)NC2=O)c2ccccc21,> 100,> 100,> 100
Cc1cc(C)c2c(n1)sc1c(N)ncnc12,> 100,> 100,> 100
COc1cc[nH]c1/C=C1\C(=O)Nc2ccc(F)c(C#CC3(O)CCNCC3)c21,1,> 100,0.67
N#CCn1c(=O)c(Oc2ccc(F)cc2F)cc2cnc(NC3CCOCC3)nc21,> 100,> 100,> 100
COc1cc[nH]c1/C=C1\C(=O)Nc2ccc(F)c(C#C[C@@H](O)[C@@H](N)[C@@H](C)O)c21,4.44,> 100,2.07
COc1ccc(O)c(C(=O)c2ccc(C(=O)O[C@@H]3CCCNC[C@H]3NC(=O)c3ccncc3)cc2)c1F,> 100,> 100,> 100
COc1ccccc1C(=O)c1cnc(NC2CCN(S(C)(=O)=O)CC2)nc1N,> 100,> 100,> 100
OCCn1c(-c2ccncc2)c(-c2ccc(F)cc2)c2ncccc21,> 100,> 100,> 100
O=C1NC(=NCCc2cccs2)S/C1=C\c1ccc2ncccc2c1,> 100,> 100,> 100
O=C1Nc2ccc(F)cc2/C1=C/c1ccc[nH]1,> 100,> 100,> 100
Cn1cc(C2=C(c3c([S+](C)[O-])n(C)c4ccccc34)C(=O)NC2=O)c2ccccc21 (stereo not given),> 100,> 100,> 100
CO/N=C(\c1ccccc1)c1cnn(-c2ccccc2)c1N,> 100,> 100,> 100
Nc1c(C(=O)c2cccc(OCCN3CCOCC3)c2)cnn1-c1ccc(F)cc1,> 100,> 100,> 100
Cn1cc(C2=C(c3cccnc3)C(=O)NC2=O)c2ccccc21,> 100,> 100,> 100
CCNC(=O)[C@@H]1CCCN2C(=O)CC[C@H](NC(=O)[C@H](Cc3ccc(OP(=O)(O)O)cc3)NC(C)=O)C(=O)N12,> 100,> 100,> 100
COc1cccc(C2=C(c3cn(C)c4cccc(OC)c34)C(=O)NC2=O)c1,> 100,> 100,> 100
Cn1cc(C2=C(c3cn(C)c4cc(Cl)ccc34)C(=O)NC2=O)c2ccccc21,> 100,> 100,> 100
COc1cccc(F)c1C(=O)c1cnc(NC2CCN(S(C)(=O)=O)CC2)nc1N,> 100,> 100,> 100
